Measured values as given in the NIST ThermoML archive (doi:10.1016/j.jct.2013.12.025).

Assay: refractive index (Na D-line) (dimensionless); xn = mol fraction of the nth substance listed
Conditions: 101 kPa, Liquid, Standard Abbe refractometry

C=C[Si](C)(C)O[Si](C)(C)C=C [1,3-diethenyl-1,1,3,3-tetramethyldisiloxane] + Fc1ccccc1
refractive index
Conditions	283.15 K	288.15 K	293.15 K	298.15 K	303.15 K
x1 = 0.05	1.46591	1.46302	1.4601	1.45724	1.45427
x1 = 0.1	1.46088	1.45799	1.4551	1.45222	1.44927
x1 = 0.15	1.45637	1.45349	1.45063	1.44775	1.44482
x1 = 0.1993	1.45237	1.44949	1.44664	1.44378	1.44083
x1 = 0.25	1.44858	1.44572	1.44288	1.44002	1.43708
x1 = 0.2999	1.44521	1.44238	1.43954	1.43671	1.43382
x1 = 0.35	1.44212	1.43928	1.43649	1.43366	1.43075
x1 = 0.4	1.43929	1.43648	1.43368	1.43086	1.42798
x1 = 0.45	1.43671	1.4339	1.43109	1.42829	1.42546
x1 = 0.5	1.43427	1.43147	1.42871	1.42592	1.42309
x1 = 0.5501	1.43205	1.42925	1.42651	1.42374	1.42092
x1 = 0.6	1.42996	1.42721	1.42446	1.42171	1.41891
x1 = 0.6501	1.42804	1.4253	1.42257	1.41982	1.41705
x1 = 0.7	1.42627	1.42353	1.4208	1.41808	1.41532
x1 = 0.7501	1.42458	1.42185	1.41913	1.41642	1.41369
x1 = 0.8	1.42302	1.42031	1.41762	1.41493	1.41219
x1 = 0.85	1.42152	1.41883	1.41615	1.41349	1.4108
x1 = 0.8998	1.42015	1.41747	1.4148	1.41213	1.40945
x1 = 0.95	1.41882	1.41617	1.41352	1.41087	1.40819
x1 = 1	1.41758	1.41493	1.41227	1.40963	1.40695

C=C[Si](C)(C)O[Si](C)(C)C=C [1,3-diethenyl-1,1,3,3-tetramethyldisiloxane] + O=[N+]([O-])c1ccccc1
refractive index
Conditions	283.15 K	288.15 K	293.15 K	298.15 K	303.15 K
x1 = 0.05	1.54466	1.54219	1.5397	1.53724	1.5348
x1 = 0.1	1.53289	1.53042	1.52796	1.52547	1.52302
x1 = 0.15	1.52202	1.51955	1.51705	1.51459	1.51211
x1 = 0.2	1.51193	1.50945	1.50694	1.50445	1.50196
x1 = 0.25	1.50266	1.50017	1.49764	1.49511	1.49265
x1 = 0.3	1.49408	1.49154	1.48901	1.48643	1.48396
x1 = 0.3508	1.48595	1.48341	1.48085	1.47825	1.47577
x1 = 0.4001	1.47862	1.47608	1.47352	1.47089	1.46841
x1 = 0.4501	1.4717	1.46914	1.46659	1.46395	1.46144
x1 = 0.4999	1.46522	1.46267	1.46009	1.45748	1.45493
x1 = 0.55	1.45917	1.45661	1.45401	1.45139	1.44883
x1 = 0.6001	1.45344	1.45088	1.4483	1.44568	1.44308
x1 = 0.6487	1.44824	1.44565	1.44307	1.44043	1.43783
x1 = 0.6999	1.44306	1.44044	1.43784	1.43521	1.43261
x1 = 0.7499	1.43821	1.43565	1.43306	1.43043	1.42778
x1 = 0.7999	1.4337	1.43109	1.42845	1.42584	1.42318
x1 = 0.8497	1.42937	1.42677	1.42414	1.42152	1.41887
x1 = 0.9	1.42527	1.42262	1.41999	1.41736	1.41471
x1 = 0.9499	1.42134	1.4187	1.41606	1.41343	1.41079
x1 = 1	1.4176	1.41495	1.41227	1.40965	1.407
